This assay has as its system P388 leukemia ip, CD2F1 mice, survival T/C. Briefly: NCI In Vivo Anticancer Drug Screen. Data for tumor model P388 Leukemia (intraperitoneal) in CD2F1 (CDF1) mice. The settings on record: endpoint: median survival time, higher = longer survival. The gist of the method: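 Mice carrying the transplanted tumor received test compound or vehicle. Survival was recorded in each group, and the value is the treated-group measurement divided by that of the vehicle-treated control group.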

[1] abbreviates: dose: 6.25 mg/kg/injection, schedule: Q01DX009 (ip), vehicle: saline.
Where [2] appears, read: dose: 200.0 mg/kg/injection, schedule: Q01DX009 (ip), vehicle: saline.
Where [3] appears, read: dose: 12.5 mg/kg/injection, schedule: Q01DX009 (ip), vehicle: saline with Tween-80.
The mark [4] stands for this setting: dose: 25.0 mg/kg/injection, schedule: Q01DX009 (ip), vehicle: saline with Tween-80.
Setting [5] is: dose: 60.0 mg/kg/injection, schedule: Q01DX005 (ip), vehicle: saline with Tween-80.
Setting [6] is: dose: 120.0 mg/kg/injection, schedule: Q01DX005 (ip), vehicle: saline with Tween-80.
[7] abbreviates: dose: 240.0 mg/kg/injection, schedule: Q01DX005 (ip), vehicle: saline with Tween-80.
[8] abbreviates: dose: 100.0 mg/kg/injection, schedule: Q04DX003 (ip), vehicle: saline with Tween-80.
Where [9] appears, read: dose: 200.0 mg/kg/injection, schedule: Q04DX003 (ip), vehicle: saline with Tween-80.
The mark [10] stands for this setting: dose: 50.0 mg/kg/injection, schedule: Q01DX009 (ip), vehicle: saline.
[11] abbreviates: dose: 100.0 mg/kg/injection, schedule: Q01DX009 (ip), vehicle: saline.
Where [12] appears, read: dose: 60.0 mg/kg/injection, schedule: Q01DX005 (ip), vehicle: Klucel (hydroxypropylcellulose) (HPC).
The mark [13] stands for this setting: dose: 120.0 mg/kg/injection, schedule: Q01DX005 (ip), vehicle: Klucel (hydroxypropylcellulose) (HPC).
[14] abbreviates: dose: 240.0 mg/kg/injection, schedule: Q01DX005 (ip), vehicle: Klucel (hydroxypropylcellulose) (HPC).

Several values for one entry are separate records, joined by “and”; a condition that tells them apart may be missing. Equal values may be shown once. Inconclusive results and toxic doses are left out.

`COc1ccc2c(c1O)-c1cccc3c1C(C2)N(CCOCCCl)CC3` (stereo not given): the T/C (dose: 12.5 mg/kg/injection, schedule: Q04DX003 (ip), vehicle: water) was 99 % of control; the T/C (dose: 25.0 mg/kg/injection, schedule: Q04DX003 (ip), vehicle: water) was 107 % of control; the T/C (dose: 50.0 mg/kg/injection, schedule: Q04DX003 (ip), vehicle: water) is 101 % of control; the T/C (dose: 100.0 mg/kg/injection, schedule: Q04DX003 (ip), vehicle: water) was 104 % of control.
With `COc1cc2c(cc1OC)C(CC1CCN3CCCCC3C1)NCC2` (stereo not given), the T/C (dose: 87.5 mg/kg/injection, schedule: Q04DX003 (ip), vehicle: saline) is 103 % of control.
For `CC(=O)N([Si](C)(C)C)[Si](C)(C)C`, the T/C under setting [1] was 88 % of control and 96 % of control; the T/C (dose: 12.5 mg/kg/injection, schedule: Q01DX009 (ip), vehicle: saline) was 100 % of control and 109 % of control and 86 % of control; the T/C (dose: 25.0 mg/kg/injection, schedule: Q01DX009 (ip), vehicle: saline) is 101 % of control and 86 % of control and 93 % of control; the T/C under setting [2] was 100 % of control.
In the case of `N=c1sccn1CC(O)c1ccccc1` (stereo not given), the T/C runs as follows: (dose: 100.0 mg/kg/injection, schedule: Q01DX001 (ip), vehicle: Klucel (hydroxypropylcellulose) (HPC)) 100 % of control; (dose: 200.0 mg/kg/injection, schedule: Q01DX001 (ip), vehicle: Klucel (hydroxypropylcellulose) (HPC)) 100 % of control.
For `CC(C)(C)c1ccc(OP(=S)(N/N=C/c2ccccc2O)Oc2ccc(C(C)(C)C)cc2)cc1`, the T/C runs as follows: under setting [3], 94 % of control; under setting [4], 88 % of control; (dose: 50.0 mg/kg/injection, schedule: Q01DX009 (ip), vehicle: saline with Tween-80) 93 % of control and 95 % of control; (dose: 100.0 mg/kg/injection, schedule: Q01DX009 (ip), vehicle: saline with Tween-80) 95 % of control; (dose: 200.0 mg/kg/injection, schedule: Q01DX009 (ip), vehicle: saline with Tween-80) 95 % of control.
Turning to `CCc1ccc(C(=O)O)cc1S(=O)(=O)Cl`, the T/C was 95 % of control (dose: 12.5 mg/kg/injection, schedule: Q01DX009 (ip), vehicle: saline sonified); 86 % of control (dose: 25.0 mg/kg/injection, schedule: Q01DX009 (ip), vehicle: saline sonified); 95 % of control (dose: 50.0 mg/kg/injection, schedule: Q01DX009 (ip), vehicle: saline sonified).
In the case of `NS(=O)(=O)c1ncc(C(=O)N2CCN(Cc3ccccc3)CC2)[nH]1`, the T/C runs as follows: under setting [5], 103 % of control; under setting [6], 107 % of control; under setting [7], 100 % of control.
Turning to `CC(=O)Cc1ccc(C)cc1`, the T/C runs as follows: under setting [8], 104 % of control; under setting [9], 104 % of control; (dose: 400.0 mg/kg/injection, schedule: Q04DX003 (ip), vehicle: saline with Tween-80) 104 % of control.
As for `CCOC(=O)CCC1=C(C)c2cc3[n-]c(cc4nc(cc5[n-]c(cc1n2)c(CCC(=O)OCC)c5C)C=C4C)cc3C.[Ni+2]`, the T/C was 96 % of control (dose: 50.0 mg/kg/injection, schedule: Q01DX005 (ip), vehicle: Klucel (hydroxypropylcellulose) (HPC)) and 92 % of control (dose: 100.0 mg/kg/injection, schedule: Q01DX005 (ip), vehicle: Klucel (hydroxypropylcellulose) (HPC)).
For `Nc1cc2c(c[n+](CCO)c3ccccc23)c2ccccc12`, the T/C reads like this: (dose: 12.5 mg/kg/injection, schedule: Q04DX003 (ip), vehicle: other) 118 % of control; (dose: 25.0 mg/kg/injection, schedule: Q04DX003 (ip), vehicle: other) 111 % of control; (dose: 50.0 mg/kg/injection, schedule: Q04DX003 (ip), vehicle: other) 118 % of control; (dose: 100.0 mg/kg/injection, schedule: Q04DX003 (ip), vehicle: other) 102 % of control.
For `CC1CCCCN1CCCNC(=O)Nc1ccc(Cc2ccc(NC(=O)NCCCN3CCCCC3C)cc2)cc1` (stereo not given), the T/C runs as follows: (dose: 0.79 mg/kg/injection, schedule: Q01DX009 (ip), vehicle: Klucel (hydroxypropylcellulose) (HPC)) 95 % of control; (dose: 1.56 mg/kg/injection, schedule: Q01DX009 (ip), vehicle: Klucel (hydroxypropylcellulose) (HPC)) 97 % of control.
Turning to `CC(O)C(NC(=O)OC(C)(C)C)C(=O)O` (stereo not given), the T/C (dose: 50.0 mg/kg/injection, schedule: Q01DX005 (ip), vehicle: saline) is 103 % of control; the T/C (dose: 100.0 mg/kg/injection, schedule: Q01DX005 (ip), vehicle: saline) was 104 % of control; the T/C (dose: 200.0 mg/kg/injection, schedule: Q01DX005 (ip), vehicle: saline) was 102 % of control.
With `CCOC(=O)c1c(C)csc1NC(=O)CSCC(=O)OC`, the T/C is, setting by setting: under setting [5], 99 % of control; under setting [6], 100 % of control; under setting [7], 94 % of control.
With `NS(=O)(=O)c1ccc2c(=O)c(C(=O)O)c[nH]c2c1`, the T/C is, setting by setting: (dose: 1.56 mg/kg/injection, schedule: Q01DX009 (ip), vehicle: saline) 98 % of control; (dose: 3.12 mg/kg/injection, schedule: Q01DX009 (ip), vehicle: saline) 92 % of control; under setting [1], 92 % of control; under setting [10], 101 % of control; under setting [11], 96 % of control.
On to `Cc1cc2c(cc1C)NC(=O)C(NC(=O)c1ccc(Cl)cc1)C=N2` (stereo not given), for which the T/C was 92 % of control under setting [12], 93 % of control under setting [13] and 93 % of control under setting [14].
Consider `CC(=O)Oc1cc2c(cc1OC(C)=O)OCC(c1ccc(C)cc1)C2` (stereo not given), for which the T/C is, setting by setting: under setting [5], 105 % of control; under setting [6], 108 % of control; under setting [7], 107 % of control.
As to `CC1=NN(c2cccc(S(=O)(=O)O)c2)C(=O)C1N=Nc1cc(Cl)cc(S(=O)(=O)O)c1O.CC1=NN(c2cccc(S(=O)(=O)O)c2)C(=O)C1N=Nc1cc(Cl)cc(S(=O)(=O)O)c1O.[Cr]` (stereo not given), the T/C reads like this: under setting [10], 111 % of control and 119 % of control; under setting [11], 120 % of control and 122 % of control; under setting [2], 123 % of control; (dose: 400.0 mg/kg/injection, schedule: Q01DX009 (ip), vehicle: saline) 122 % of control.
Regarding `O=[N+]([O-])c1cc(CNCCO)c(O)c2ncccc12`, the T/C was 91 % of control under setting [5], 93 % of control under setting [6] and 110 % of control under setting [7].
For `Brc1ccc2c(ccc3c2nnc2nccn23)c1`, the T/C reads like this: under setting [12], 91 % of control and 95 % of control; under setting [13], 97 % of control; under setting [14], 86 % of control and 94 % of control.
For the molecule `Nc1nc(N)nc(-c2cc(Br)c(N)c(Br)c2)n1`, the T/C is 95 % of control (dose: 50.0 mg/kg/injection, schedule: Q01DX005 (ip), vehicle: saline with Tween-80); 101 % of control (dose: 100.0 mg/kg/injection, schedule: Q01DX005 (ip), vehicle: saline with Tween-80); 93 % of control (dose: 200.0 mg/kg/injection, schedule: Q01DX005 (ip), vehicle: saline with Tween-80).
Regarding `FC(F)(F)S.[Ag]`, the T/C runs as follows: under setting [3], 107 % of control; under setting [4], 116 % of control.
For `CCOC(=S)/N=C1/SCS(=O)(=O)N1c1ccccc1`, the T/C was 99 % of control (dose: 50.0 mg/kg/injection, schedule: Q04DX003 (ip), vehicle: saline with Tween-80); 95 % of control under setting [8]; 98 % of control under setting [9].
Turning to `COc1cccc2c1C(=O)c1c(O)c3c(c(O)c1C2=O)C[C@@](O)(C(C)O)C[C@@H]3OC1CC(NCc2ccccc2)C(O)C(C)O1` (stereo not given in full), the T/C reads like this: (dose: 0.78 mg/kg/injection, schedule: Q01DX009 (ip), vehicle: water) 158 % of control; (dose: 1.56 mg/kg/injection, schedule: Q01DX009 (ip), vehicle: water) 163 % of control; (dose: 3.13 mg/kg/injection, schedule: Q01DX009 (ip), vehicle: water) 181 % of control and 194 % of control; (dose: 6.25 mg/kg/injection, schedule: Q01DX009 (ip), vehicle: water) 215 % of control and 226 % of control.
For `C1=CN2CC(c3ccccc3)=NNC2c2ccccc21` (stereo not given), the T/C was 107 % of control (dose: 100.0 mg/kg/injection, schedule: Q04DX002 (ip), vehicle: Klucel (hydroxypropylcellulose) (HPC)) and 99 % of control (dose: 200.0 mg/kg/injection, schedule: Q04DX002 (ip), vehicle: Klucel (hydroxypropylcellulose) (HPC)).
With `Nc1ncnc(N)c1NC(=O)c1ccc(OCc2ccccc2)cc1`, the T/C runs as follows: under setting [5], 105 % of control; under setting [6], 99 % of control; under setting [7], 95 % of control.
The corresponding values for `CC1(c2ccccc2)OC(=O)C=CC1=O` (stereo not given) are 110 % of control, 104 % of control and 108 % of control.
